Results published in patent US12310364B2, “Safened compositions comprising pyridine carboxylate herbicides and cloquintocet” (Corteva Agriscience LLC, priority 2018, dated 2025).

Legend:
Assay type in all cases: in vivo
[1] = test system: Sinapis arvensis (wild mustard), SINAR; assay: Greenhouse postemergence trial, visual injury on wild mustard
Text: (§1) Greenhouse Trial Methodology—Evaluation of Postemergence Herbicidal Safening in Crops
(§2) Seeds of the desired test plant species were planted in a 90:10% v/v (volume/volume) mixture of PRO-MIX® BX (Premier Tech Horticulture, Quakertown, PA, USA) and PROFILE® GREENS GRADE™ (Profile Products LLC, Buffalo Grove, IL, USA) planting mixture, which typically has a pH of 5.2 to 6.2 and an organic matter content of at least 50 percent, in plastic pots with a surface area of 103.2 square centimeters (cm^2). When required to ensure good germination and healthy plants, a fungicide treatment and/or other chemical or physical treatment was applied. The plants were grown for 7-36 days (d) in a greenhouse with an approximate 14-hour (h) photoperiod which was maintained at about 23° C. during the day and 22° C. during the night. Nutrients and water were added on a regular basis and supplemental lighting was provided with overhead metal halide 1000-Watt lamps as necessary. The plants were employed for testing when they reached the second or third true leaf stage.
(§3) Emulsifiable concentrates of each of each pyridine carboxylate herbicide (Compound A or Compound B) were prepared at 100 grams acid equivalent per liter (g ae/L). An aliquot of each emulsifiable concentrate was placed in a 25 mL glass vial and diluted with an aqueous mixture of 1.25% (v/v) ACTIROB® B esterified rapeseed oil (Bayer Crop Science, Research Triangle Park, NC, USA) or MSO® Concentrate with LECI-TECH® methylated soybean oil (Loveland Products, Loveland, CO, USA) to obtain concentrated stock solutions at the highest application rate for each herbicide, based upon a 12 milliliter (mL) application volume at a rate of 187 liters per hectare (L/ha). The concentrated stock solutions were further diluted with an aqueous mixture of 1.25% v/v ACTIROB® B or MSO® Concentrate with LECI-TECH® to obtain stock solutions at reduced application rates for each herbicide. Spray solutions of the herbicide combinations (Compound A or Compound B plus safener) were prepared by adding weighed amounts or aliquots of the safener to the stock solutions of Compound A or Compound B to form 12-mL spray solutions in two-way combinations.
(§4) The spray solutions were applied to the plant material with an overhead Mandel track sprayer equipped with 8002E nozzles calibrated to deliver 187 L/ha over an application area of 0.503 square meters (m^2) at a spray height of 18 inches (43 centimeters (cm)) above the average plant canopy. Control plants were sprayed in the same manner with the solvent blank. All herbicide (component a) application rates are given as “g ae/ha” and all safener (component b) application rates are given as “g ai/ha.”
(§5) The treated plants and control plants were placed in a greenhouse as described above and watered by sub-irrigation to prevent wash-off of the test compounds. After 20-22 d, the condition of the test plants as compared with that of the control plants was determined visually and scored on a scale of 0 to 100 percent where 0 corresponds to no injury and 100 corresponds to complete kill.

[2] = test system: Canada horseweed (ERICA, Erigeron canadensis); assay: Greenhouse postemergence trial, visual injury on Canada horseweed; details: Table 19
Text: as §1, §2
as §3, with “combinations. […]” for “combinations.”
as §5

[3] = test system: Avena sativa (common oat), AVESA; assay: Greenhouse postemergence safening trial, visual injury on common oat
Protocol: (§6) Greenhouse Trial Methodology-Evaluation of Postemergence Herbicidal […] in Crops […] When required to ensure good germination and healthy plants, a fungicide treatment and/or other chemical or physical treatment was applied. The plants were grown for 7-36 days (d) in a greenhouse with an approximate 14-hour (h) photoperiod which was maintained at about 23° C. during the day and 22° C. during the night. Nutrients and water were added on a regular basis and supplemental lighting was provided with overhead metal halide 1000-Watt lamps as necessary. The plants were employed for testing when they reached the second or third true leaf stage. Emulsifiable concentrates of each of each pyridine carboxylate herbicide (Compound A or Compound B) were prepared at 100 grams acid equivalent per liter (g ae/L). […] The concentrated stock solutions were further diluted with an aqueous mixture of 1.25% […] or MSO® Concentrate with LECI-TECH® to obtain stock solutions at reduced application rates for each herbicide. Spray solutions of the herbicide combinations (Compound A or Compound B plus safener) were prepared by adding weighed amounts or aliquots of the safener to the stock solutions of Compound A or Compound B to form 12-mL spray solutions in two-way combinations. […] Control plants were sprayed in the same manner with the solvent blank. All herbicide (component a) application rates are given as “g ae/ha” and all safener (component b) application rates are given as “g ai/ha.” The treated plants and control plants were placed in a greenhouse as described above and watered by sub-irrigation to prevent wash-off of the test compounds.

[4] = test system: wild oat (AVEFA, Avena fatua); assay: Greenhouse postemergence trial, visual injury on wild oat; details: Table 19
Text: as §1, §2
as §3, with “combinations. […]” for “combinations.”
as §5

[5] = test system: Johnson grass (SORHA, Sorghum halepense); assay: Greenhouse postemergence trial, visual injury on Johnson grass; details: Table 19
Text: as §1, §2
as §3, with “combinations. […]” for “combinations.”
as §5

[6] = test system: Triticum aestivum (durum wheat), TRZDU; assay: Greenhouse postemergence safening trial, visual injury on durum wheat
Protocol: as §6

[7] = test system: Anthemis arvensis (field chamomile), ANTAR; assay: Greenhouse postemergence trial, visual injury on field chamomile
Text: as §1, §2, §3, §4, §5

[8] = test system: ivyleaf morningglory (IPOHE, Ipomoea hederacea); assay: Greenhouse postemergence trial, visual injury on ivyleaf morningglory; details: Table 19
Text: as §1, §2
as §3, with “combinations. […]” for “combinations.”
as §5

[9] = test system: velvetleaf (ABUTH, Abutilon theophrasti); assay: Greenhouse postemergence trial, visual injury on velvetleaf; details: Table 19
Text: as §1, §2
as §3, with “combinations. […]” for “combinations.”
as §5

[10] = test system: Polygonum convulvus (wild buckwheat), POLCO; assay: Greenhouse postemergence trial, visual injury on wild buckwheat
Text: as §1, §2, §3, §4, §5

[11] = test system: pigweed (AMARE, Amaranthus retroflexus); assay: Greenhouse postemergence trial, visual injury on pigweed
Text: as §1, §2, §3, §4, §5

[12] = CQC-mexyl 40 g/ha alone, Table 14
[13] = CQC-mexyl 20 g/ha alone, Table 19
[14] = CQC-mexyl 40 g/ha alone, Table 19
[15] = CQC-mexyl 80 g/ha alone, Table 19
[16] = Compound A 40 g/ha alone, Table 14
[17] = Compound A 20 g/ha alone, Table 19

**Q.** What does the source list for `CCCCCC(C)OC(=O)COc1ccc(Cl)c2cccnc12` (centres unmarked) [CQC-mexyl, cloquintocet-mexyl]?
**A.** % visual injury, Ob ([1]; CQC-mexyl 10 g/ha alone, Table 16): 0%; % visual injury, Ob ([1]; CQC-mexyl 20 g/ha alone, Table 16): 0%; % visual injury, Ob ([1]; CQC-mexyl 40 g/ha alone, Table 16): 0%; % visual injury, Ob ([1]; CQC-mexyl 80 g/ha alone, Table 16): 0%; % visual injury, Ob ([1]; safener alone 5 g/ha): 0%; % visual injury, Ob ([1]; safener alone 10 g/ha): 0%; % visual injury, Ob ([1]; safener alone 20 g/ha): 0%; % visual injury, Ob ([1]; safener alone 40 g/ha): 0%; % visual injury, Ob ([2]; CQC-mexyl 20 g/ha alone): 0%; % visual injury, Ob ([2]; CQC-mexyl 40 g/ha alone): 0%; % visual injury, Ob ([2]; CQC-mexyl 80 g/ha alone): 0%; % visual injury, Ob [3, 12]: 0%; % visual injury, Ob ([3]; safener alone 40 g/ha): 0%; % visual injury, Ob ([4]; CQC-mexyl 20 g/ha alone): 0%; % visual injury, Ob ([4]; CQC-mexyl 40 g/ha alone): 0%; % visual injury, Ob ([4]; CQC-mexyl 80 g/ha alone): 0%; % visual injury, Ob ([5]; CQC-mexyl 20 g/ha alone): 0%; % visual injury, Ob ([5]; CQC-mexyl 40 g/ha alone): 0%; % visual injury, Ob ([5]; CQC-mexyl 80 g/ha alone): 0%; % visual injury, Ob [6, 12]: 0%; % visual injury, Ob ([6]; safener alone 40 g/ha): 0%; % visual injury, Ob ([7]; CQC-mexyl 5 g/ha alone, Table 15): 0%; % visual injury, Ob ([7]; CQC-mexyl 10 g/ha alone, Table 15): 0%; % visual injury, Ob ([7]; CQC-mexyl 20 g/ha alone, Table 15): 0%; % visual injury, Ob ([7]; CQC-mexyl 40 g/ha alone, Table 15): 0%; % visual injury, Ob ([8]; CQC-mexyl 20 g/ha alone): 0%; % visual injury, Ob ([8]; CQC-mexyl 40 g/ha alone): 0%; % visual injury, Ob ([8]; CQC-mexyl 80 g/ha alone): 0%; % visual injury, Ob ([9]; CQC-mexyl 20 g/ha alone): 0%; % visual injury, Ob ([9]; CQC-mexyl 40 g/ha alone): 0%; % visual injury, Ob ([9]; CQC-mexyl 80 g/ha alone): 0%; % visual injury, Ob [10, 13]: 0%; % visual injury, Ob [10, 14]: 0%; % visual injury, Ob [10, 15]: 0%; % visual injury, Ob ([10]; safener alone 5 g/ha): 0%; % visual injury, Ob ([10]; safener alone 10 g/ha): 0%; % visual injury, Ob ([10]; safener alone 20 g/ha): 0%; % visual injury, Ob ([10]; safener alone 40 g/ha): 0%; % visual injury, Ob ([11]; CQC-mexyl 20 g/ha alone, Table 17): 0%; % visual injury, Ob [11, 13]: 0%; % visual injury, Ob ([11]; CQC-mexyl 40 g/ha alone, Table 17): 0%; % visual injury, Ob [11, 14]: 0%; % visual injury, Ob ([11]; CQC-mexyl 80 g/ha alone, Table 17): 0%; % visual injury, Ob [11, 15]: 0%; % visual injury, Ob ([11]; CQC-mexyl 120 g/ha alone, Table 17): 0%

**Q.** `N#CCOC(=O)c1nc(-c2ccc3cc[nH]c3c2F)c(F)c(N)c1Cl` [Compound A, cyanomethyl 4-amino-3-chloro-5-fluoro-6-(7-fluoro-1H-indol-6-yl)pyridine-2-carboxylate] was tested. Which “% visual injury, Ob” value ([1]; Compound A 40 g/ha alone, Table 16) did it give?
**A.** Its value is 99%.

**Q.** And the “% visual injury, Ob” value ([1]; herbicide alone 40 g/ha)?
**A.** Its value is 99%.

**Q.** And the “% visual injury, Ob” value ([2]; Compound A 20 g/ha alone)?
**A.** The value was 95%.

**Q.** And the “% visual injury, Ob” value [3, 16]?
**A.** Its value is 0%.

**Q.** What about the “% visual injury, Ob” value ([3]; herbicide alone 40 g/ha) of the same molecule?
**A.** The value was 0%.

**Q.** What about the “% visual injury, Ob” value ([4]; Compound A 20 g/ha alone) of the same molecule?
**A.** Its value is 0%.

**Q.** What about the “% visual injury, Ob” value ([5]; Compound A 20 g/ha alone) of the same molecule?
**A.** Its value is 0%.

**Q.** And the “% visual injury, Ob” value [6, 16]?
**A.** The value was 45%.

**Q.** And the “% visual injury, Ob” value ([6]; herbicide alone 40 g/ha)?
**A.** Its value is 45%.

**Q.** And the “% visual injury, Ob” value ([7]; Compound A 20 g/ha alone, Table 15)?
**A.** The value was 95%.

**Q.** And the “% visual injury, Ob” value ([7]; herbicide alone 20 g/ha)?
**A.** The value was 95%.

**Q.** And the “% visual injury, Ob” value ([8]; Compound A 20 g/ha alone)?
**A.** The value was 0%.

**Q.** And the “% visual injury, Ob” value ([9]; Compound A 20 g/ha alone)?
**A.** The value was 95%.

**Q.** What about the “% visual injury, Ob” value [10, 17] of the same molecule?
**A.** The value was 100%.

**Q.** What about the “% visual injury, Ob” value [11, 17] of the same molecule?
**A.** Its value is 93%.

**Q.** And the “% visual injury, Ob” value ([11]; Compound A 40 g/ha alone, Table 17)?
**A.** Its value is 100%.

**Q.** What about the “% visual injury, Ob” value ([11]; Compound A 40 g/ha alone, Table 18) of the same molecule?
**A.** The value was 100%.
